Test results reported in US20070031815A1, “Screening method for identifying hsp90 modulators” (University of Liverpool, priority 2003, published 2007).
Where two headings read alike, the source gives them in different places.

System: yeast cells
Test: Entry of known Hsp90 inhibitors into yeast cells
Assay type: cell-based
Excerpt: Yeast have many advantages in development of screening systems or biosensors-compared to mammalian cells they are robust; easy and cheap to grow; genetically stable; and represent a reduced health risk to workers (viral contamination of cell lines becomes an issue in low cost high throughput screening). […] However, yeast are not always permeable to compounds that would be able to enter mammalian cells. […] This problem has been overcome in the past by using yeast mutants that have enhanced sensitivity to toxic chemicals. These mutations are in genes described as Pleiotrophic Drug Resistance (PDR) or Multiple Drug Resistance (MDR) gene. One class of PDR genes are those affecting the ergosterol balance in the yeast membrane. Mammalian cells have cholesterol in the plasma membrane while yeast have ergosterol. Mutations in the gene ERG6 (ISE1) cause cells to become sensitive to a range of lipophilic drugs. Another class of mutations affect active drug uptake or efflux, for example mutations to the ATP dependent efflux pump PDR5 increase drug sensitivity. A combination of mutations from these different pathways further increases sensitivity. In addition to increasing permeability of the plasma membrane and reducing efflux better drug entry can also be brought about by changing the cell wall structure, this can also increase osmotic sensitivity, which facilitates release of proteins. Mutation of the GDP-mannose phosphorylase (SRB1) interferes with the glycosylation of cell wall proteins, this increases drug and osmotic sensitivity. Hsp90 itself is also involved in the maintenance of cell wall integrity via its functional interaction with Ste11. Ste11 is a MAPKKK that normally activates the MAPKK Pbs2 which in turn activates the Hog-1 transcriptional activator. Hog-1 activation modifies the cell wall in response to osmotic shock, disruption of Hog-1 causes drug and osmotic sensitivity. There are also dominant mutations which increase sensitivity to cytotoxic agents, such as ISE2 which increases sensitivity to a range of topoisomerase II inhibitors.

Compound | entry into yeast cells (yeast permeability) | entry into yeast cells
C=CCNC1=C2C[C@@H](C)C[C@H](OC)[C@H](O)[C@@H](C)/C=C(\C)[C@H](OC(N)=O)[C@@H](OC)/C=C\C=C(/C)C(=O)NC(=CC1=O)C2=O [Compound 17-AAG, 17-allylamino demethoxy geldanamycin] | enter yeast cells easily | –
CO[C@H]1[C@@H](OC)C[C@H](C)[C@@H](OC)C2=CC(=O)C=C(NC(=O)/C(C)=C/C=C\[C@H](C)[C@@H](OC(N)=O)/C(C)=C/[C@@H]1C)C2=O [Macbecin, Macbecin I] | – | enter yeast cells easily
C[C@@H]1C[C@H]2O[C@@H]2/C=C\C=C\C(=O)Cc2c(Cl)c(O)cc(O)c2C(=O)O1 [Radicicol] | enter yeast cells easily | –
CO[C@@H]1[C@@H](OC(N)=O)[C@@H](O)[C@H](Oc2ccc3c(O)c(NC(=O)c4ccc(O)c(CC=C(C)C)c4)c(=O)oc3c2C)OC1(C)C [Novobiocin] | enter yeast cells easily | –
COC1=C2C[C@@H](C)C[C@H](OC)[C@H](O)[C@@H](C)/C=C(\C)[C@H](OC(N)=O)[C@@H](OC)/C=C\C=C(/C)C(=O)NC(=CC1=O)C2=O [GA, Geldanamycin] | enter yeast cells easily | –
CO[C@H]1[C@@H](OC)C[C@H](C)[C@@H](OC)C2=CC(=O)C=C(NC(=O)/C(C)=C/C=C\[C@H](OC)[C@@H](OC(N)=O)/C(C)=C/[C@@H]1C)C2=O [Herbimycin] | enter yeast cells easily | –
